In general, IC50 refers to the concentration at which inhibition is half-maximal. Higher therefore signals a need for much substance.

In the experiment the target is Prostaglandin G/H synthase 2 (Ovis aries) (UniProt P79208). In words: Inhibition of ovine COX-2 using arachidonic acid as substrate preincubated for 5 mins followed by substrate addition.
Chain of Prostaglandin G/H synthase 2 (Ovis aries) (P79208 whole entry, looked up): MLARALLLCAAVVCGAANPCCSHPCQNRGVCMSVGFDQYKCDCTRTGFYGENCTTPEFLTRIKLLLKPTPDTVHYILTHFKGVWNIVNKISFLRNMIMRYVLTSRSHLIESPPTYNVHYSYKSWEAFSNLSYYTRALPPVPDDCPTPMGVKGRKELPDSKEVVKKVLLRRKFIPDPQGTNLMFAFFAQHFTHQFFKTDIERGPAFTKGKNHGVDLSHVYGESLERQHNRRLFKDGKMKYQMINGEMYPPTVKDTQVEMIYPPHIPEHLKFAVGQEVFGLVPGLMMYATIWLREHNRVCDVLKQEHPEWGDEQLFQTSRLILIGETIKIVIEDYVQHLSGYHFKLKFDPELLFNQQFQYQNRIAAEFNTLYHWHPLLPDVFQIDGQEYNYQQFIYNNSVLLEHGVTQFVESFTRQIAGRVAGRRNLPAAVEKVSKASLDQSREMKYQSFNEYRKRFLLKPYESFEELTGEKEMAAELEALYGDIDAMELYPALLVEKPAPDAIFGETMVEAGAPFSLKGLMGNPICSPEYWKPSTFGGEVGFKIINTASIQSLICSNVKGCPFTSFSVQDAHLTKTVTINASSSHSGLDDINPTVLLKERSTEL

`O=C1NNC(N=CCc2ccc([N+](=O)[O-])cc2)C1=NNc1ccc(-c2nc3ccccc3o2)cc1` (stereo unspecified) had an IC50 of 560 nM.

The record behind these values is BindingDB's records for PubMed 39149111 (Cairo University).
